Source: US10669239B2, “Tetrahydronaphthyl urea derivative” (MOCHIDA PHARMACEUTICAL CO., LTD., priority 2017, dated 2020)

Molecular target: human TrkA protein (Homo sapiens (Human), UniProt P04629)
Assay: TrkA LanthaScreen Eu Kinase Binding Assay (binding activity for human TrkA protein)
Details: TrkA enzyme, Kinase Tracer 236, TR-FRET, 60 minutes at room temperature
Description: (Pharmacological Experimental Example 1): Evaluation of Binding Activity for Human TrkA Protein
Measurement was carried out using TrkA LanthaScreen (registered trademark) Eu Kinase Binding Assay (ThermoFisher SCIENTIFIC). To a 384 well plate (Corning), 2.5 μL of the test compound having various concentrations and diluted with Kinase buffer (ThermoFisher SCIENTIFIC) and 2.5 μL of 15 nM TrkA enzyme (ThermoFisher SCIENTIFIC) were added. Moreover, 5 μL of 3 nM Eu-anti-His Tag antibody (ThermoFisher SCIENTIFIC) and 5 μL of 30 nM Kinase (registered trademark) Tracer 236 (ThermoFisher SCIENTIFIC) were added, followed by reaction at room temperature for 60 minutes. After the reaction, the fluorescence intensity of Europium (Emission wavelength 615 nm) and TR-FRET (Emission wavelength 665 nm) with an excitation wavelength of 340 nm were measured with EnVision 2100 (PerkinElmer) to calculate the fluorescence ratio as the amount of the test compound and the TrkA enzyme bonded. The inhibitory activity (IC50 value) of each test compound was calculated with the fluorescence ratio of the well to which a solvent was added instead of the test compound being 0% and the fluorescence ratio of the well without addition of the TrkA protein being 100%.
In Table 1, Compounds 1 to 62 respectively mean Compounds 1 to 62 synthesized in accordance with Examples 1 to 62 described later.

Chain of human TrkA protein (P04629 33-796): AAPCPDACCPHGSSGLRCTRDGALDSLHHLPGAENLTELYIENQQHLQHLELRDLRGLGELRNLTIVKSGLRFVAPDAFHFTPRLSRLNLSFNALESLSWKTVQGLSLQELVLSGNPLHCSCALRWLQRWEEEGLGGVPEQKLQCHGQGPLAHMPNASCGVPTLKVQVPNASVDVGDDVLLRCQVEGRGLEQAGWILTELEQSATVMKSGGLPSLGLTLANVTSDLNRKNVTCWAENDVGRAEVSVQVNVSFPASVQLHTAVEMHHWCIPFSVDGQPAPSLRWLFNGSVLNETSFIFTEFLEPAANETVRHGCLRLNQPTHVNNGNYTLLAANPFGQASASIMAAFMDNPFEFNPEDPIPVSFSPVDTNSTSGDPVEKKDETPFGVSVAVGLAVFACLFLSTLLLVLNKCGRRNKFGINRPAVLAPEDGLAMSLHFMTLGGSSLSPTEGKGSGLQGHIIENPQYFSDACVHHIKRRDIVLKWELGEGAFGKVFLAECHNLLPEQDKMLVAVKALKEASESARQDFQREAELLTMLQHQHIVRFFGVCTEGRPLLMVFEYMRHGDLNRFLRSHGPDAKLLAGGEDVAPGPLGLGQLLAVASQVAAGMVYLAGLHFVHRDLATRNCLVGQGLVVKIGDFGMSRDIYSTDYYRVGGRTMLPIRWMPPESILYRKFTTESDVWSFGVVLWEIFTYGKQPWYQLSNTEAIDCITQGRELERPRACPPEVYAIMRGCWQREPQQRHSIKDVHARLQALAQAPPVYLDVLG

- IC50: ≤ 50 nM
SMILES: Cc1cc(NC(=O)N[C@@H]2c3cc(F)c(F)cc3C(C)(C)C[C@H]2O)c(-c2ccccc2)nc1-c1ccnc(CO)c1 (racemic) [Compound 56, rac-1-((1R,2R)-6,7-difluoro-2-hydroxy-4,4-dimethyl-1,2,3,4-tetrahydronaphthalen-1-yl)-3-(2′-(hydroxymethyl)-3-methyl-6-phenyl-[2,4′-bipyridin]-5-yl)urea]
